Measurements: article PMC7932537, “Quantitative profiling of protease specificity” (PLoS Computational Biology, 2021)

What was measured:
MMP-2 = assay: Substrate phage display with NGS: relative probability (RP) of P3-P1' tetramer clusters; type: biochemical, human; conditions: for avg_RP: MMP2 - no binning; for relative probability (RP) of matching tetramer: P3-P1' tetramer matching the MS detected MMP2 cleavage sequence, RP_above_4.5; for normalized RP - MMP2: normalized RP of matching tetramer; for MMP2 relative probability (RP): MMP2 tetramers from unique substrates, unrounded values
MMP-9 = assay: as above; type: biochemical, human; conditions: for normalized RP - MMP9: normalized RP of matching tetramer; for corresponding MMP9 relative probability (RP): MMP2 tetramers from unique substrates, RP of same tetramer for MMP9
[1] = RP of the P3-P1' tetramer, MMP2 substrate phage display/NGS, tetramers of physiologic MEROPS substrates common to MMP2 and MMP9
[2] = RP of the P3-P1' tetramer, MMP9 substrate phage display/NGS, tetramers of physiologic MEROPS substrates common to MMP2 and MMP9
[3] = RP of the P3-P1' tetramer cluster contained in the hexamer, 200 nM MMP-2, 2 h, 37°C, two rounds of selection
[4] = MMP9, RP of the P3-P1' tetramer contained in the hexamer substrate (substrate phage display, NGS)
[5] = MMP2, RP of matching P3-P1' tetramer, common set of MMP2-9 selectome, RP above KL threshold
[6] = RP of matching tetramer, common MMP2-9 selectome
[7] = MMP9, RP of matching P3-P1' tetramer, common set of MMP2-9 selectome
[8] = MMP9, RP of the P3-P1' tetramer matching the MS detected cleavage, RP above 4.7, substrate phage display with NGS
[9] = RP of matching tetramer, common MMP2-9 selectome, RP above KL threshold
[10] = RP of matching tetramer, unique part of MMP2 selectome, RP above KL threshold
[11] = RP of matching tetramer, unique part of MMP2 selectome
[12] = RP according to MMP2, P3-P1' tetramer of unique physiologic MMP2 substrates from MEROPS
[13] = RP according to MMP9, P3-P1' tetramer of unique physiologic MMP9 substrates from MEROPS

Substance: GLSL
- relative probability (RP) (acc.to MMP2) (MMP-2; [1]): 0.18
- relative probability (RP) (acc.to MMP9) (MMP-9; [2]): 4.42

Substance: GPAGIR
- relative probability (RP) (MMP-2; [3]): 33.3207
- relative probability (RP) (MMP-9; [4]): 45.1083

Substance: GPALSY
- relative probability (RP) (MMP-2; [3]): 14.6475
- relative probability (RP) (MMP-9; [4]): 25.6531

Substance: GPARPY
- relative probability (RP) (MMP-2; [3]): 20.5004
- relative probability (RP) (MMP-9; [4]): 36.8874

Substance: GPEGMK
- relative probability (RP) (MMP-2; [3]): 19.9209
- relative probability (RP) (MMP-9; [4]): 31.8598

Substance: GPHGYK
- relative probability (RP) (MMP-2; [3]): 24.9359
- relative probability (RP) (MMP-9; [4]): 44.1642

Substance: GPKG
- relative probability (RP) (acc.to MMP2) (MMP-2; [1]): 1.49
- relative probability (RP) (acc.to MMP9) (MMP-9; [2]): 2.81

Substance: GPKGFR
- relative probability (RP) (MMP-2; [3]): 30.2308
- relative probability (RP) (MMP-9; [4]): 42.0715

Substance: GPRGLK
- relative probability (RP) (MMP-2; [3]): 35.2511
- relative probability (RP) (MMP-9; [4]): 47.3825

Substance: GPRYLM
- relative probability (RP) (MMP-2; [3]): 30.5447
- relative probability (RP) (MMP-9; [4]): 44.5304

Substance: GQPMNL
- relative probability (RP) (MMP-2; [3]): 32.5586
- relative probability (RP) (MMP-9; [4]): 48.9575

Substance: GRGL
- avg_RP (MMP-2; average relative probability of the tetramer, redundant tetramers averaged out): 4.9808
- relative probability (RP) (acc.to MMP2) (MMP-2; [5]): 4.98
- relative probability (RP) of matching tetramer (MMP-2): 4.98
- relative probability (RP) (acc.to MMP2) (MMP-2; [6]): 4.98
- relative probability (RP) (acc.to MMP9) (MMP-9; [7]): 11.45
- relative probability (RP) (MMP-9; [8]): 11.45
- relative probability (RP) (acc.to MMP9) (MMP-9; [9]): 11.45

Substance: GSAL
- relative probability (RP) of matching tetramer (MMP-2): 9.27
- relative probability (RP) (acc.to MMP2) (MMP-2; [10]): 9.27
- normalized RP - MMP2 (MMP-2; unique part of MMP2 selectome): 0.2538
- relative probability (RP) (acc.to MMP9) (MMP-9; [11]): 2.8
- normalized RP - MMP9 (MMP-9; unique part of MMP2 selectome): 0.05346

Substance: GSSY
- relative probability (RP) (acc.to MMP2) (MMP-2; [1]): 0.73
- relative probability (RP) (acc.to MMP9) (MMP-9; [2]): 0.37

Substance: HARL
- MMP2 relative probability (RP) (MMP-2): 17.6482
- Relative probability (RP) rank (MMP-2; [12]): 2341
- relative probability (RP) (MMP-2; [12]): 17.65
- corresponding MMP9 relative probability (RP) (MMP-9): 0.3259

Substance: HFFK
- relative probability (RP) (acc.to MMP2) (MMP-2; [1]): 0.14
- relative probability (RP) (acc.to MMP9) (MMP-9; [2]): 0.27

Substance: HPVSMV
- relative probability (RP) (MMP-2; [3]): 30.0644
- relative probability (RP) (MMP-9; [4]): 41.2029

Substance: HQKL
- relative probability (RP) (acc.to MMP2) (MMP-2; [1]): 2.29
- relative probability (RP) (acc.to MMP9) (MMP-9; [2]): 0.06

Substance: IAFL
- relative probability (RP) (acc.to MMP2) (MMP-2; [5]): 22.55
- relative probability (RP) of matching tetramer (MMP-2): 22.55
- relative probability (RP) (acc.to MMP9) (MMP-9; [7]): 10.97

Substance: IANL
- avg_RP (MMP-2; average relative probability (RP) of the P3-P1' tetramer, redundant tetramers have been averaged out): 33.8805
- relative probability (RP) (acc.to MMP2) (MMP-2; [5]): 33.88
- relative probability (RP) of matching tetramer (MMP-2): 33.88
- relative probability (RP) (acc.to MMP2) (MMP-2; [6]): 33.88
- relative probability (RP) (acc.to MMP9) (MMP-9; [7]): 21.07
- relative probability (RP) (MMP-9; [8]): 21.07
- relative probability (RP) (acc.to MMP9) (MMP-9; [9]): 21.07

Substance: IDNL
- relative probability (RP) of matching tetramer (MMP-2): 4.88
- relative probability (RP) (acc.to MMP2) (MMP-2; [10]): 4.88
- normalized RP - MMP2 (MMP-2; unique part of MMP2 selectome): 0.1336
- relative probability (RP) (acc.to MMP9) (MMP-9; [11]): 0.5
- normalized RP - MMP9 (MMP-9; unique part of MMP2 selectome): 0.009546

Substance: IGGL [P3-P1' tetramer cluster]
- relative probability (RP) of matching tetramer (MMP-2): 26.48
- relative probability (RP) (acc.to MMP2) (MMP-2; [10]): 26.48
- normalized RP - MMP2 (MMP-2; unique part of MMP2 selectome): 0.7251
- relative probability (RP) (acc.to MMP9) (MMP-9; [11]): 4.4
- normalized RP - MMP9 (MMP-9; unique part of MMP2 selectome): 0.084
- relative probability (RP) (MMP-9; tetramer projected onto MMP-9 cleavage sites determined by Prudova et al. (2010)): 4.4

Substance: IGLM
- MMP2 relative probability (RP) (MMP-2): 19.5116
- Relative probability (RP) rank (MMP-2; [12]): 1895
- relative probability (RP) (MMP-2; [12]): 19.51
- relative probability (RP) (acc.to MMP2) (MMP-2; [1]): 19.51
- corresponding MMP9 relative probability (RP) (MMP-9): 2.913
- Relative probability (RP) rank (MMP-9; [13]): 7888
- relative probability (RP) (MMP-9; [13]): 2.91
- relative probability (RP) (acc.to MMP9) (MMP-9; [2]): 2.91

Substance: IGNM
- relative probability (RP) (acc.to MMP2) (MMP-2; [5]): 29.21
- relative probability (RP) of matching tetramer (MMP-2): 29.21
- relative probability (RP) (acc.to MMP9) (MMP-9; [7]): 9.58

Substance: IGRF
- MMP2 relative probability (RP) (MMP-2): 13.8957
- Relative probability (RP) rank (MMP-2; [12]): 3460
- relative probability (RP) (MMP-2; [12]): 13.9
- corresponding MMP9 relative probability (RP) (MMP-9): 0.4689

Substance: IGTY
- relative probability (RP) of matching tetramer (MMP-2): 5.18
- relative probability (RP) (acc.to MMP2) (MMP-2; [10]): 5.18
- normalized RP - MMP2 (MMP-2; unique part of MMP2 selectome): 0.1418
- relative probability (RP) (acc.to MMP9) (MMP-9; [11]): 0.06
- normalized RP - MMP9 (MMP-9; unique part of MMP2 selectome): 0.001145

Substance: IHSL
- relative probability (RP) (acc.to MMP2) (MMP-2; [5]): 6.87
- relative probability (RP) of matching tetramer (MMP-2): 6.87
- relative probability (RP) (acc.to MMP9) (MMP-9; [7]): 4.86

Substance: INPQGL
- relative probability (RP) (MMP-2; [3]): 33.5241
- relative probability (RP) (MMP-9; [4]): 47.8621

Substance: IPLASL
- relative probability (RP) (MMP-2; [3]): 31.1996
- relative probability (RP) (MMP-9; [4]): 34.6637

Substance: IQSI
- relative probability (RP) of matching tetramer (MMP-2): 15.56
- relative probability (RP) (acc.to MMP2) (MMP-2; [10]): 15.56
- normalized RP - MMP2 (MMP-2; unique part of MMP2 selectome): 0.4261
- relative probability (RP) (acc.to MMP9) (MMP-9; [11]): 0.41
- normalized RP - MMP9 (MMP-9; unique part of MMP2 selectome): 0.007827

Substance: IRPKHF
- relative probability (RP) (MMP-2; [3]): 19.1404
- relative probability (RP) (MMP-9; [4]): 30.1694

Substance: ITGL
- MMP2 relative probability (RP) (MMP-2): 4.832
- Relative probability (RP) rank (MMP-2; [12]): 7648
- relative probability (RP) (MMP-2; [12]): 4.83
- corresponding MMP9 relative probability (RP) (MMP-9): 0.3587

Substance: KPVNMT
- relative probability (RP) (MMP-2; [3]): 30.0312
- relative probability (RP) (MMP-9; [4]): 44.4072
